According to patent publication US11319324B2, “Pyrazolo-pyrrolo-pyrimidine-dione derivatives as P2X3 inhibitors” (Bayer Aktiengesellschaft, priority 2017, dated 2022):

How the values were obtained:
Type in all cases: cell-based
[1] = target: T1, human P2X3 receptor (Homo sapiens, UniProt P56373); test: Intracellular calcium measurement, antagonist activity at human P2X3 receptors (hP2X3 1321N1), Fluo8; set-up: expressed in transfected cells; host or cells: human astrocytoma 1321N1 (1312N1 [sic]); conditions: column 3); 1321N1 cells, human P2X3, Fluo8, agonist ATP at EC50
T1 sequence (P56373 1-397): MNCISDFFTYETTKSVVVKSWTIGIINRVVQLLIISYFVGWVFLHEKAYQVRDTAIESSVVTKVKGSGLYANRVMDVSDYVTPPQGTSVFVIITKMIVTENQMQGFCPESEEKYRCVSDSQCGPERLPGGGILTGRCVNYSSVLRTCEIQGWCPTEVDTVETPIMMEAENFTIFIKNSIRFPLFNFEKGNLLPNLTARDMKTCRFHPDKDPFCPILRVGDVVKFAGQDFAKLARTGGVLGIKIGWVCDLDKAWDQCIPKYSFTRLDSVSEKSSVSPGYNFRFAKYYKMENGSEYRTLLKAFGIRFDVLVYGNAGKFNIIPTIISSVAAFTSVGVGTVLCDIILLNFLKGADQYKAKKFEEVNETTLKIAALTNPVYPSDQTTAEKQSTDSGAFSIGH
Procedure, shortened: (§1)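 Antagonism was assessed by decrease of the Fluo8 calcium signal after ATP challenge, with ATP dosed at the EC50 of whichever receptor was tested. Stable 1321N1 astrocytoma lines expressed either human P2X3 or both P2X2 and P2X3, and were dye-loaded 60 min before a 10 min compound incubation.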

[2] = target: T1, human P2X3 receptor; test: Intracellular calcium measurement to assess antagonist activity at human P2X3 receptors (hP2X3 CHO), photina luminescence; set-up: expressed in transfected cells; host or cells: Chinese hamster ovary (CHO) cells; conditions: column 2), CHO cells, agonist α,β-methylene-ATP at EC50
Procedure, shortened: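 Antagonism read as lowered photina luminescence after agonist stimulation in recombinant hP2X3/photina CHO cells. Cells seeded one day earlier (30 °C) and reconstituted with 5 μg/ml coelenterazine in 2 mM Ca-tyrode buffer for 3 h at 37 °C before measurement.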

[3] = target: T1, human P2X3 receptor; test: Intracellular calcium measurement to assess antagonist activity at human P2X3 receptors (hP2X3 FLIPR); set-up: expressed in transfected cells; host or cells: human astrocytoma 1321N1 (1312N1 [sic]); conditions: head prints (1321N1); read-out: 1) hP2X3 IC50 [nM] (1321N1)
Description: 1) Intracellular Calcium Measurement to Assess Antagonist Activity at Human P2X3 Receptors (hP2X3 FLIPR)
A fluorescent imaging plate reader (FLEX/FLIPR station; Molecular Devices) was used to monitor intracellular calcium levels using the calcium-chelating dye Fluo-4 (Molecular Probes). The excitation and emission wavelengths used to monitor fluorescence were 470-495 nm and 515-575 nm, respectively. The human astrocytoma […] cells expressing purinergic receptors P2X3 (human) were plated at a density of 15,000 cells/well in collagen—coated 384-well plates approximately 20 hours before beginning the assay. […] The dye supernatant was removed and replaced with 45 μl probenecid buffer (Hank's balanced salt solution, 20 mM HEPES, 0.5 mM CaCl2, 0.5 mM MgCl2, 0.1% BSA, 5 mM probenecid, 10 mM D-glucose monohydrate, pH=7.4). The test compounds were added in a volume of 5 μl and allowed to incubate for 30 min at 37° C. The final assay DMSO concentration is 1%. […] The fluorescence was measured for an interval of 90 sec at 2 sec intervals and analyzed based on the increase in peak relative fluorescence units (RFU) compared to the basal fluorescence. Peak fluorescence was used to determine the response to agonist obtained at each concentration of test compound by the following equation: Response=100*(RFU(test compound)−RFU(control))/(RFU(DMSO)−RFU(control))
The Examples were tested in triplicates per plate and mean values were plotted in Excel XLFit to determine IC50 values at the human P2X3 and human P2X2/3 receptors, percentage of maximal inhibition and the Hill coefficients.

[4] = target: T2, human P2X2/3 receptors (Homo sapiens, UniProt P56373+Q9UBL9); test: Intracellular calcium measurement, antagonist activity at human P2X2/3 receptors (hP2X23 1321N1), Fluo8; conditions: for IC50: column 4); 1321N1 cells, human P2X2/3, Fluo8, agonist ATP at EC50; read-out: 4) hP2X2/3 IC50 [nM] (1321N1); for hP2X23/hP2X3* Selectivity (1321N1): ratio of column 4) hP2X2/3 to column 3) hP2X3, 1321N1
T2 construct: expressed in transfected cells; host or cells: human astrocytoma 1321N1 (1312N1 [sic])
T2 sequence (P56373 1-397): T1 sequence (P56373 1-397)
T2 sequence (Q9UBL9 1-471): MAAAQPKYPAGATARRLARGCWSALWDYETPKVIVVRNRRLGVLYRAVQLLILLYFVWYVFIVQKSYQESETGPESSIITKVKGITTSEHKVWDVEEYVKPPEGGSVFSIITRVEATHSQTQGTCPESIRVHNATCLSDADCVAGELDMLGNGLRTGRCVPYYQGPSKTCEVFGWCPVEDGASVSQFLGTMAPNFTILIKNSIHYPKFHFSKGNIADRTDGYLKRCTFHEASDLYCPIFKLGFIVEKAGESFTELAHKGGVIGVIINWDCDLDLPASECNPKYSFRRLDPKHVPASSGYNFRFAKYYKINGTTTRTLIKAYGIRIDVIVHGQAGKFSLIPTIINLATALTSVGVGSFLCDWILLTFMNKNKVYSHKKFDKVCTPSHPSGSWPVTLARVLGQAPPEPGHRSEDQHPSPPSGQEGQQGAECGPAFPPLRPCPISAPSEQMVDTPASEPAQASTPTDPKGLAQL
Procedure, shortened: as §1

SMILES	IC50 [1] [nM]	IC50 [2] [nM]	IC50 [3] [nM]	IC50 [4] [nM]	hP2X23/hP2X3* Selectivity (1321N1) [4]
CC(C)(C)c1cc2n(CC(=O)Nc3ccc(F)cn3)c3c(c(=O)n2n1)CN(C1CCCC1)C3=O [Example 26]	46	20	22	2450	54
CC(C)(C)c1cc2n(CC(=O)Nc3ccc(F)cn3)c3c(c(=O)n2n1)CN(C1COC1)C3=O [Example 27]	205	118	95	> 21000	>102
CC(C)(C)c1cc2n(CC(=O)Nc3ccc(F)cn3)c3c(c(=O)n2n1)CN(CC1CCOCC1)C3=O [Example 28]	410	305	146	12300	30
CC(C)(O)CN1Cc2c(n(CC(=O)Nc3ccc(F)cn3)c3cc(C(C)(C)C)nn3c2=O)C1=O [Example 32]	170	121	139	12000	71
CC(C)(C)c1cc2n(CC(=O)Nc3ccc(F)cn3)c3c(c(=O)n2n1)CN(C1CCOCC1)C3=O [Example 33]	297	165	276	> 21500	>72
CC(C)(C)c1cc2n(CC(=O)Nc3ccc(F)cn3)c3c(c(=O)n2n1)CN(CC(=O)N1CCCC1)C3=O [Example 38]	627	175	161	> 21000	>34
COC[C@H](C)N1Cc2c(n(CC(=O)Nc3ccc(F)cn3)c3cc(C(C)C)nn3c2=O)C1=O [Example 39]	25	29	14	7550	308
COC[C@H](C)N1Cc2c(n(CC(=O)Nc3ccc(F)cn3)c3cc(C4CCOCC4)nn3c2=O)C1=O [Example 40]	31	26	20	> 23500	>758
COC[C@@H](C)N1Cc2c(n(CC(=O)Nc3ccc(F)cn3)c3cc(C(C)C)nn3c2=O)C1=O [Example 44]	34	39	16	8200	241
CCc1cc2n(CC(=O)Nc3ccc(F)cn3)c3c(c(=O)n2n1)CN([C@@H](C)COC)C3=O [Example 46]	36	59	28	14000	385
CC(C)(C)c1cc2n(CC(=O)Nc3ccc(Cl)cn3)c3c(c(=O)n2n1)CN(C1COC1)C3=O [Example 48]	263	555	182	8100	31
COCCN1Cc2c(n(CC(=O)Nc3ccc(F)cn3)c3cc(C(C)(C)C)nn3c2=O)C1=O [Example 49]	33	62	23	3900	119

Further lines, results first:

IC50 [1] [nM]	IC50 [2] [nM]	IC50 [3] [nM]	IC50 [4] [nM]	hP2X23/hP2X3* Selectivity (1321N1) [4]	SMILES
82	81	56	2850	35	CC[C@H](C)N1Cc2c(n(CC(=O)Nc3ccc(Cl)cn3)c3cc(C(F)(F)F)nn3c2=O)C1=O [Example 22]
153	64	80	> 20600	>11134	Cc1cc2n(CC(=O)Nc3ccc(F)cn3)c3c(c(=O)n2n1)CN(C(C)C)C3=O [Example 23]
76	60	35	10000	132	CCc1cc2n(CC(=O)Nc3ccc(F)cn3)c3c(c(=O)n2n1)CN(C(C)C)C3=O [Example 24]
11	23	10	7150	624	COCC(C)N1Cc2c(n(CC(=O)Nc3ccc(F)cn3)c3cc(C(C)(C)C)nn3c2=O)C1=O (centres unmarked) [Example 25]
36	41	62	4150	115	CC(C)N1Cc2c(n(CC(=O)Nc3ccc(Cl)cn3)c3cc(C(F)(F)F)nn3c2=O)C1=O [Example 29]
393	170	344	> 21500	>55	Cc1ccc(NC(=O)Cn2c3c(c(=O)n4nc(C(F)(F)F)cc24)CN(C(C)C)C3=O)nc1 [Example 30]
277	120	130	> 32000	>116	CC(C)N1Cc2c(n(CC(=O)Nc3ccc(F)cn3)c3cc(C(F)(F)F)nn3c2=O)C1=O [Example 31]
16	20	12	5650	353	COC[C@H](C)N1Cc2c(n(CC(=O)Nc3ccc(F)cn3)c3cc(C(C)(C)C)nn3c2=O)C1=O [Example 35]
57	44	34	> 20900	>368	COCC(C)N1Cc2c(n(CC(=O)Nc3ccc(F)cn3)c3cc(Br)nn3c2=O)C1=O (centres unmarked) [Example 36, 2-[2-bromo-6-(1-methoxypropan-2-yl)-5,8-dioxo-5,6,7,8-tetrahydro-4H-pyrazolo[1,5-a]pyrrolo[3,4-d]pyrimidin-4-yl]-N-(5-fluoropyridin-2-yl)acetamide]
200	135	82	> 32000	>160	COC[C@H](C)N1Cc2c(n(CC(=O)Nc3ccc(F)cn3)c3cc(C(F)(F)F)nn3c2=O)C1=O [Example 37]
82	51	55	> 32000	>393	COC[C@H](C)N1Cc2c(n(CC(=O)Nc3ccc(F)cn3)c3cc(C)nn3c2=O)C1=O [Example 41]
31	20	19	6500	213	COC[C@@H](C)N1Cc2c(n(CC(=O)Nc3ccc(F)cn3)c3cc(C(C)(C)C)nn3c2=O)C1=O [Example 43]
370	394	377	> 32000	>86	CC(C)N1Cc2c(n(CC(=O)Nc3ccc(F)cn3)c3ccnn3c2=O)C1=O [Example 45]
